Measured values reported in ChEMBL document CHEMBL1201862, “PubChem BioAssay data set” (2004).
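Five compound concentrations were applied to cells in 96-well plates for 48 hours; endpoints were derived by simple linear interpolation of the resulting dose-response curve. Abbreviation: GI50, concentration required for 50% inhibition of growth.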 Activity calls are given as the source filed them. Rule as the data show it: active = GI50 up to about 1.1 µM and inactive = higher.

Assays:
Assay in all cases: NCI tumour cell line growth inhibition, 48 h
DMS-273 = test system: DMS-273
RXF 631 = test system: RXF 631
XF498 = test system: XF498
DMS-114 = test system: DMS-114
DLD-1 = test system: DLD-1
KM-20L2 = test system: KM-20L2
SNB-78 = test system: SNB-78
HOP-18 = test system: HOP-18
BT-549 = test system: BT-549

Q: Which results are given for `CN1C/C(=C\C=C\c2ccccc2)C(=O)/C(=C/C=C/c2ccccc2)C1`?
A: GI50 (DMS-273): > 100 µM (inactive); GI50 (RXF 631): > 100 µM (inactive); GI50 (XF498): > 100 µM (inactive); GI50 (DMS-114): > 100 µM (inactive); GI50 (DLD-1): > 100 µM (inactive); GI50 (KM-20L2): > 100 µM (inactive); GI50 (SNB-78): > 100 µM (inactive)

Q: What does the source list for `O=C1C=C(Nc2ccccc2C(=O)CC(=O)C(=O)Nc2ccc(Cl)cc2)c2ccccc2C1=O`?
A: GI50 (DMS-273): 13.8 µM (inactive); GI50 (HOP-18): 0.594 µM (active); GI50 (RXF 631): 30 µM (inactive); GI50 (XF498): 13.7 µM (inactive); GI50 (DMS-114): 3.64 µM (inactive); GI50 (DLD-1): 5.56 µM (inactive); GI50 (KM-20L2): > 55.2 µM (inactive); GI50 (SNB-78): 6.37 µM (inactive)

Q: For `COc1cc(=O)oc(/C=C/CO)c1C`, which GI50 (DMS-273) is on record?
A: > 100 µM (inactive)

Q: What about the GI50 (HOP-18) of the same molecule?
A: > 100 µM (inactive)

Q: And the GI50 (RXF 631)?
A: > 100 µM (inactive)

Q: And the GI50 (XF498)?
A: > 100 µM (inactive)

Q: What about the GI50 (DMS-114) of the same molecule?
A: > 100 µM (inactive)

Q: What about the GI50 (DLD-1) of the same molecule?
A: > 100 µM (inactive)

Q: What about the GI50 (KM-20L2) of the same molecule?
A: > 100 µM (inactive)

Q: For `O=C1OC(CC(=O)c2ccc(Cl)cc2Cl)C(Cl)=C1Cl` (stereo not drawn), which GI50 (DMS-273) is on record?
A: 39 µM (inactive)

Q: What about the GI50 (HOP-18) of the same molecule?
A: > 100 µM (inactive)

Q: And the GI50 (RXF 631)?
A: 31.1 µM (inactive)

Q: And the GI50 (XF498)?
A: 21.3 µM (inactive)

Q: What about the GI50 (DMS-114) of the same molecule?
A: 18.4 µM (inactive)

Q: And the GI50 (DLD-1)?
A: 22.4 µM (inactive)

Q: What about the GI50 (KM-20L2) of the same molecule?
A: 21.1 µM (inactive)

Q: What about the GI50 (SNB-78) of the same molecule?
A: 33.1 µM (inactive)

Q: Which results are given for `CCN(CC)CCNc1ccc2nnn3c4ccc([N+](=O)[O-])cc4c(=O)c1c23`?
A: GI50 (DMS-273): 5.16 µM (inactive); GI50 (BT-549): > 100 µM (inactive); GI50 (HOP-18): 2.8 µM (inactive); GI50 (RXF 631): 4.11 µM (inactive); GI50 (XF498): 6.25 µM (inactive); GI50 (DMS-114): 8.53 µM (inactive); GI50 (DLD-1): 3.93 µM (inactive); GI50 (KM-20L2): 4.94 µM (inactive); GI50 (SNB-78): 9.71 µM (inactive)

Q: With `C[C@]12C=CC(=O)C=C1CC[C@@H]1[C@@H]2CC[C@]2(C)OC(=O)CC[C@@H]12` [TESTOLACTONE] as the molecule, how does the GI50 (DMS-273) read?
A: > 490 µM (inactive)

Q: What about the GI50 (BT-549) of the same molecule?
A: 237 µM (inactive)

Q: What about the GI50 (HOP-18) of the same molecule?
A: 98.4 µM (inactive)

Q: And the GI50 (RXF 631)?
A: > 472 µM (inactive)

Q: And the GI50 (XF498)?
A: 245 µM (inactive)

Q: What about the GI50 (DMS-114) of the same molecule?
A: 376 µM (inactive)

Q: What about the GI50 (DLD-1) of the same molecule?
A: > 500 µM (inactive)

Q: And the GI50 (KM-20L2)?
A: 456 µM (inactive)

Q: What about the GI50 (SNB-78) of the same molecule?
A: 460 µM (inactive)
